Laboratory results published in patent US20230181614A1, “ADMINISTRATION OF CITICOLINE TO IMPROVE COGNITIVE PERFORMANCE, ATTENTIONAL PERFORMANCE, AND MOTOR FUNCTION” (KYOWA HAKKO BIO CO., LTD., priority 2014, published 2023).
Several values for one entry are separate records, joined by “and”; a condition that tells them apart may be missing. Equal entries are not always repeated.

Key:
[1] = tested on: Healthy subjects, ages 13-18; experiment: Continuous Performance Test (CPT); type: in vivo, human; conditions: for CPT Commissions V1, Mean / CPT Omissions V1, Mean / CPT Hit Reaction Time V1, Mean: Visit 1
From the text: Study participants were screened by telephone prior to study enrollment. Healthy subjects, ages 13-18, with no significant medical conditions and no history of co-morbid psychiatric disorder, current Axis I or II diagnosis, or previous participation in a pharmacotherapeutic trial, were selected. Use of any psychotropic medication or any previous head injury resulting in loss of consciousness for 5 or more minutes were used as exclusion criteria. While no participant met criteria for a neuropsychiatric disorder at enrollment, clinical assessments were still completed throughout the study to evaluate changes in mood state. In addition, self-reports of sleep habits, lifestyle, and exercise routines were also administered at baseline as well as at each study visit to assess changes in health habits during study participation. Following the completion of Visit 1 assessment, participants were given their 28-day supply of citicoline (250 mg or 500 mg) or placebo, which was randomly assigned. They were instructed to take one capsule a day every day for the next 28 days. Visit 2 occurred fourteen days after Visit 1. At Visit 2, the remaining study pills were counted and participant dosage calendars were checked to ensure compliance with the protocol. Additional neuropsychological measures and clinical assessments were administered during this visit. Participants returned for Visit 3 fourteen days later, on the 28th day of their study participation. The pill bottle and the dosage calendar were collected from each participant. Urine and blood were again obtained. Participants also participated in similar clinical and neuropsychological testing and clinical measures that were given during visit 1. The CPT is a test of sustained attention that has been adapted for computerized administration. The test requires participants to attend vigilantly to a series of target and distracter stimuli for a 14-minute duration. […] The CPT was administered at all three visits.

[2] = tested on: Healthy subjects, ages 13-18; experiment: Exercise and Life Style Questionnaire; type: in vivo, human; design: scale not given here; conditions: for Alcohol Q10 V1 Mean / Alcohol Q11 V1 Mean / Alcohol Q12 V1 Mean / Alcohol Total V1 Mean / Appetite Q5 V1 Mean / Appetite Q6 V1 Mean / Appetite Total V1 Mean / Exercise Q1 V1 Mean / Exercise Q2 V1 Mean / Exercise Q3 V1 Mean / Exercise Q4 V1 Mean / Exercise Total V1 Mean / Smoke Q7 V1 Mean / Smoke Q8 V1 Mean / Smoke Q9 V1 Mean / Smoke Total V1 Mean: Visit 1; for Alcohol Q10 V3 Mean / Alcohol Q11 V3 Mean / Alcohol Q12 V3 Mean / Alcohol Total V3 Mean / Appetite Q5 V3 Mean / Appetite Q6 V3 Mean / Appetite Total V3 Mean / Exercise Q1 V3 Mean / Exercise Q2 V3 Mean / Exercise Q3 V3 Mean / Exercise Q4 V3 Mean / Exercise Total V3 Mean / Smoke Q7 V3 Mean / Smoke Q8 V3 Mean / Smoke Q9 V3 Mean / Smoke Total V3 Mean: Visit 3
From the text: Study participants were screened by telephone prior to study enrollment. Healthy subjects, ages 13-18, with no significant medical conditions and no history of co-morbid psychiatric disorder, current Axis I or II diagnosis, or previous participation in a pharmacotherapeutic trial, were selected. Use of any psychotropic medication or any previous head injury resulting in loss of consciousness for 5 or more minutes were used as exclusion criteria. While no participant met criteria for a neuropsychiatric disorder at enrollment, clinical assessments were still completed throughout the study to evaluate changes in mood state. In addition, self-reports of sleep habits, lifestyle, and exercise routines were also administered at baseline as well as at each study visit to assess changes in health habits during study participation. Following the completion of Visit 1 assessment, participants were given their 28-day supply of citicoline (250 mg or 500 mg) or placebo, which was randomly assigned. They were instructed to take one capsule a day every day for the next 28 days. Visit 2 occurred fourteen days after Visit 1. At Visit 2, the remaining study pills were counted and participant dosage calendars were checked to ensure compliance with the protocol. Additional neuropsychological measures and clinical assessments were administered during this visit. Participants returned for Visit 3 fourteen days later, on the 28th day of their study participation. The pill bottle and the dosage calendar were collected from each participant. Urine and blood were again obtained. Participants also participated in similar clinical and neuropsychological testing and clinical measures that were given during visit 1. The General Questionnaire and Exercise and Life Style Questionnaire are self-report questionnaires designed to assess a variety of symptoms, behaviors, and self-perceptions, including mood, complexion, exercise, food, and alcohol habits of each of the participants. The General Questionnaire was administered during each of the three study visits; the Exercise and Life Style Questionnaire was administered during each of the three study visits. The Exercise/Lifestyle Questionnaire included four summary categories (Exercise, Appetite, Smoke, and Alcohol), each of which consisted of multiple individual items. Within and between group analyses are reported below for each of the summary categories.

[3] = 250 mg/day group, Visit difference score
[4] = 250 mg/day group, Visit 3, in ms (unit assumed)
[5] = 250 mg/day group, visit difference score V3-V1
[6] = 500 mg/day group, Visit difference score

C[N+](C)(C)CCOP(=O)(O)OP(=O)([O-])OC[C@H]1O[C@@H](n2ccc(N)nc2=O)[C@H](O)[C@@H]1O [citicoline, Cytidine 5′-diphosphocholine]
CPT Commissions V1, Mean ([1]; 250 mg/day group): 18.22
CPT Omissions V1, Mean ([1]; 250 mg/day group): 9.59
CPT Hit Reaction Time V1, Mean ([1]; 250 mg/day group, in ms (unit assumed)): 362.62
V3-V1 CPT Commissions, Mean [1, 3]: -1.26
V3-V1 CPT Omissions, Mean [1, 3]: 4.93
V3-V1 CPT Hit Reaction Time, Mean ([1]; 250 mg/day group, Visit difference score, in ms (unit assumed)): 34.57
CPT Commissions V3, Mean ([1]; 250 mg/day group, Visit 3): 16.96
CPT Omissions V3, Mean ([1]; 250 mg/day group, Visit 3): 14.52
V3 CPT Commissions (Mean) ([1]; 250 mg/day group, Visit 3): 16.96
V3 CPT Omissions (Mean) ([1]; 250 mg/day group, Visit 3): 14.52
CPT Hit Reaction Time V3, Mean [1, 4]: 397.19
V3 CPT Hit Reaction Time (Mean) [1, 4]: 397.19
V3-V1 CPT Commissions, Mean [1, 5]: -1.26
V3-V1 CPT Omissions, Mean [1, 5]: 4.93
V3-V1 CPT Hit Reaction Time, Mean ([1]; 250 mg/day group, visit difference score V3-V1, in ms (unit assumed)): 34.57
CPT Commissions V1, Mean ([1]; 500 mg/day group): 18.79
CPT Omissions V1, Mean ([1]; 500 mg/day group): 8.42
CPT Hit Reaction Time V1, Mean ([1]; 500 mg/day group, in ms (unit assumed)): 363.58
CPT Hit Reaction Time V3, Mean ([1]; 500 mg/day group, Visit 3, in ms (unit assumed)): 391.30
V3-V1 CPT Commissions, Mean [1, 6]: -3.88
V3-V1 CPT Omissions, Mean [1, 6]: 5.33
V3-V1 CPT Hit Reaction Time, Mean ([1]; 500 mg/day group, Visit difference score, in ms (unit assumed)): 27.71
CPT Commissions V3, Mean ([1]; 500 mg/day group, Visit 3): 14.92
CPT Omissions V3, Mean ([1]; 500 mg/day group, Visit 3): 13.75
Alcohol Total V3-V1 Mean ([2]; 250 mg/day): 0.00
Appetite Total V3-V1 Mean ([2]; 250 mg/day): -0.59
Exercise Total V3-V1 Mean ([2]; 250 mg/day): -0.78
Smoke Total V3-V1 Mean ([2]; 250 mg/day): -0.07
Alcohol Q10 V1 Mean ([2]; 250 mg/day): 0.07
Alcohol Q11 V1 Mean ([2]; 250 mg/day): 1.00
Alcohol Q12 V1 Mean ([2]; 250 mg/day): 1.00
Alcohol Total V1 Mean ([2]; 250 mg/day): 2.07
Appetite Q5 V1 Mean ([2]; 250 mg/day): 4.11
Appetite Q6 V1 Mean ([2]; 250 mg/day): 4.44
Appetite Total V1 Mean ([2]; 250 mg/day): 8.56
Exercise Q1 V1 Mean ([2]; 250 mg/day): 1.15
Exercise Q2 V1 Mean ([2]; 250 mg/day): 6.35
Exercise Q3 V1 Mean ([2]; 250 mg/day): 3.56
Exercise Q4 V1 Mean ([2]; 250 mg/day): 3.81
Exercise Total V1 Mean ([2]; 250 mg/day): 14.87
Smoke Q7 V1 Mean ([2]; 250 mg/day): 0.00
Smoke Q8 V1 Mean ([2]; 250 mg/day): 1.00
Smoke Q9 V1 Mean ([2]; 250 mg/day): 1.07
Smoke Total V1 Mean ([2]; 250 mg/day): 2.08
Alcohol Q10 V3 Mean ([2]; 250 mg/day): 0.07
Alcohol Q11 V3 Mean ([2]; 250 mg/day): 1.00
Alcohol Q12 V3 Mean ([2]; 250 mg/day): 1.00
Alcohol Total V3 Mean ([2]; 250 mg/day): 2.07
Appetite Q5 V3 Mean ([2]; 250 mg/day): 4.15
Appetite Q6 V3 Mean ([2]; 250 mg/day): 3.81
Appetite Total V3 Mean ([2]; 250 mg/day): 7.96
Exercise Q1 V3 Mean ([2]; 250 mg/day): 1.07
Exercise Q2 V3 Mean ([2]; 250 mg/day): 6.80
Exercise Q3 V3 Mean ([2]; 250 mg/day): 3.11
Exercise Q4 V3 Mean ([2]; 250 mg/day): 3.11
Exercise Total V3 Mean ([2]; 250 mg/day): 14.09
Smoke Q7 V3 Mean ([2]; 250 mg/day): 0.00
Smoke Q8 V3 Mean ([2]; 250 mg/day): 1.00
Smoke Q9 V3 Mean ([2]; 250 mg/day): 1.00
Smoke Total V3 Mean ([2]; 250 mg/day): 2.00
Alcohol Total V3-V1 Mean ([2]; 500 mg/day): 0.00
Appetite Total V3-V1 Mean ([2]; 500 mg/day): -0.83
Exercise Total V3-V1 Mean ([2]; 500 mg/day): -2.78
Smoke Total V3-V1 Mean ([2]; 500 mg/day): 0.00
Alcohol Q10 V1 Mean ([2]; 500 mg/day): 0.00
Alcohol Q11 V1 Mean ([2]; 500 mg/day): 1.00
Alcohol Q12 V1 Mean ([2]; 500 mg/day): 1.00
Alcohol Total V1 Mean ([2]; 500 mg/day): 2.00
Appetite Q5 V1 Mean ([2]; 500 mg/day): 3.96
Appetite Q6 V1 Mean ([2]; 500 mg/day): 3.25
Appetite Total V1 Mean ([2]; 500 mg/day): 7.21
Exercise Q1 V1 Mean ([2]; 500 mg/day): 1.17
Exercise Q2 V1 Mean ([2]; 500 mg/day): 8.50
Exercise Q3 V1 Mean ([2]; 500 mg/day): 3.71
Exercise Q4 V1 Mean ([2]; 500 mg/day): 3.75
Exercise Total V1 Mean ([2]; 500 mg/day): 17.24
Smoke Q7 V1 Mean ([2]; 500 mg/day): 0.00
Smoke Q8 V1 Mean ([2]; 500 mg/day): 1.00
Smoke Q9 V1 Mean ([2]; 500 mg/day): 1.00
Smoke Total V1 Mean ([2]; 500 mg/day): 2.00
Alcohol Q10 V3 Mean ([2]; 500 mg/day): 0.00
Alcohol Q11 V3 Mean ([2]; 500 mg/day): 1.00
Alcohol Q12 V3 Mean ([2]; 500 mg/day): 1.00
Alcohol Total V3 Mean ([2]; 500 mg/day): 2.00
Appetite Q5 V3 Mean ([2]; 500 mg/day): 3.50
Appetite Q6 V3 Mean ([2]; 500 mg/day): 2.88
Appetite Total V3 Mean ([2]; 500 mg/day): 6.38
Exercise Q1 V3 Mean ([2]; 500 mg/day): 1.13
Exercise Q2 V3 Mean ([2]; 500 mg/day): 7.54
Exercise Q3 V3 Mean ([2]; 500 mg/day): 2.96
Exercise Q4 V3 Mean ([2]; 500 mg/day): 2.75
Exercise Total V3 Mean ([2]; 500 mg/day): 14.46 and 14.48
Smoke Q7 V3 Mean ([2]; 500 mg/day): 0.00
Smoke Q8 V3 Mean ([2]; 500 mg/day): 1.00
Smoke Q9 V3 Mean ([2]; 500 mg/day): 1.00
Smoke Total V3 Mean ([2]; 500 mg/day): 2.00
